Assay: recombinant UMI read abundance after kanamycin selection (control-corrected) (log10(CPM+1)); higher = more efficient recombination; extreme values may be limits of the assay; sequences stand for … in AGTGCAGAGAAAATCGGCCAGTTTTCTCTGCCTGCAGTCCGCATGCCGTGGGACCCCTTGGGTTCTAACCTGTTGCCTAGATTTATGCAGCGGACTGCCTTTCTCCCAAAGTGATAAACCGG…AGGTTGGTTTCACT; site = the 11-nt donor
Procedure, shortened: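 Under IPTG (0.07 mM) plus kanamycin, or without selection, Escherichia coli carrying a UMI-tagged donor and donor-binding-loop pair library and a target plasmid for the IS621 bridge recombinase were plated in two replicates. Recombinant UMIs were PCR-amplified across the donor–target junction and sequenced. Counts were converted to CPM, averaged over replicates, scaled by control-derived factors and reported as log10(CPM+1).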
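Also: IS621 bridge recombinase in Escherichia coli cells against a fixed T5 target plasmid.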

| Sequence | recombinant UMI read abundance (log10) |
| --- | --- |
| CCCCTCTCATGGACCGGTTTTCCCGGTAATCCGTATTTGGG (site CCCATCTCTCC) | 0 |
| CCCCTCTCATGGACCGGTTTTCCCGGTAATCCGTATTTGGG (site CCCCTCTCTCC) | 0.0198 |
| CCCCTCTCATGGACCGGTTTTCCCGGTAATCCGTATTTGGG (site CCCGTCTCTCC) | 0.00587 |
| CCCCTCTCATGGACCGGTTTTCCCGGTAATCCGTATTTGGG (site CCCTTCTCTCC) | 0 |
| CCCCTTACATGGACCGGTTTTCCCGGTAATCCGTATTTGGT (site CCCCTTACTAC) | 0.238 |
| CCCGACCCATGGACCGGTTTTCCCGGTAATCCGTATTTGAG (site CCCGACCCTCT) | 0.0182 |
| CCCGAGTCATGGACCGGTTTTCCCGGTAATCCGTATTTGCC (site CCCGAGTCTGG) | 0.938 |
| CCCGGCCCATGGACCGGTTTTCCCGGTAATCCGTATTTGCA (site CCCGGACCTTG) | 0.00734 |
| CCCGGCCCATGGACCGGTTTTCCCGGTAATCCGTATTTGCA (site CCCGGCCCTTG) | 0 |
| CCCGGCCCATGGACCGGTTTTCCCGGTAATCCGTATTTGCA (site CCCGGGCCTTG) | 0 |
| CCCGGCCCATGGACCGGTTTTCCCGGTAATCCGTATTTGCA (site CCCGGTCCTTG) | 0.0145 |
| CCCGGTTCATGGACCGGTTTTCCCGGTAATCCGTATTTGCA (site CCCGGTACTTG) | 0 |
| CCCGGTTCATGGACCGGTTTTCCCGGTAATCCGTATTTGCA (site CCCGGTCCTTG) | 0 |
| CCCGGTTCATGGACCGGTTTTCCCGGTAATCCGTATTTGCA (site CCCGGTGCTTG) | 0.0148 |
| CCCGGTTCATGGACCGGTTTTCCCGGTAATCCGTATTTGCA (site CCCGGTTCTTG) | 1.83 |
| CCCGTACCATGGACCGGTTTTCCCGGTAATCCGTATTTGCT (site CCCGTACCTAG) | 0 |
| CCCGTCGCATGGACCGGTTTTCCCGGTAATCCGTATTTGCC (site CCCGTCGCTGG) | 1.45 |
| CCCGTCTCATGGACCGGTTTTCCCGGTAATCCGTATTTGGG (site CCCATCTCTCC) | 0.0267 |
| CCCGTCTCATGGACCGGTTTTCCCGGTAATCCGTATTTGGG (site CCCCTCTCTCC) | 0.0424 |
| CCCGTCTCATGGACCGGTTTTCCCGGTAATCCGTATTTGGG (site CCCGTCTCTCC) | 0.0026 |
| CCCGTCTCATGGACCGGTTTTCCCGGTAATCCGTATTTGGG (site CCCTTCTCTCC) | 0.018 |
| CCCTAACCATGGACCGGTTTTCCCGGTAATCCGTATTTGCT (site CCCTAACCTAG) | 0 |
| CCCTACTCATGGACCGGTTTTCCCGGTAATCCGTATTTGGG (site CCCTACTCTCC) | 0.346 |
| CCCTACTCATGGACCGGTTTTCCCGGTAATCCGTATTTGGG (site CCCTCCTCTCC) | 0.00345 |
| CCCTACTCATGGACCGGTTTTCCCGGTAATCCGTATTTGGG (site CCCTGCTCTCC) | 0.0112 |

| Sequence | recombinant UMI read abundance (log10) |
| --- | --- |
| CCCTACTCATGGACCGGTTTTCCCGGTAATCCGTATTTGGG (site CCCTTCTCTCC) | 0.00875 |
| CCCTAGCCATGGACCGGTTTTCCCGGTAATCCGTATTTGGC (site CCCTAGCCTGA) | 0 |
| CCCTAGCCATGGACCGGTTTTCCCGGTAATCCGTATTTGGC (site CCCTAGCCTGC) | 0 |
| CCCTAGCCATGGACCGGTTTTCCCGGTAATCCGTATTTGGC (site CCCTAGCCTGG) | 0 |
| CCCTAGCCATGGACCGGTTTTCCCGGTAATCCGTATTTGGC (site CCCTAGCCTGT) | 0 |
| CCCTATCCATGGACCGGTTTTCCCGGTAATCCGTATTTGAC (site CCCTATCCTGT) | 0 |
| CCCTATTCATGGACCGGTTTTCCCGGTAATCCGTATTTGCT (site CCCTATTCTAG) | 1.7 |
| CCCTCCTCATGGACCGGTTTTCCCGGTAATCCGTATTTGCC (site CACTCCTCTGG) | 0.544 |
| CCCTCCTCATGGACCGGTTTTCCCGGTAATCCGTATTTGCC (site CCCTCCTCTGG) | 2.25 |
| CCCTCCTCATGGACCGGTTTTCCCGGTAATCCGTATTTGCC (site CGCTCCTCTGG) | 0 |
| CCCTCCTCATGGACCGGTTTTCCCGGTAATCCGTATTTGCC (site CTCTCCTCTGG) | 0.448 |
| CCCTCGCCATGGACCGGTTTTCCCGGTAATCCGTATTTGCC (site CCCTAGCCTGG) | 0 |
| CCCTCGCCATGGACCGGTTTTCCCGGTAATCCGTATTTGCC (site CCCTCGCCTGG) | 0 |
| CCCTCGCCATGGACCGGTTTTCCCGGTAATCCGTATTTGCC (site CCCTGGCCTGG) | 0 |
| CCCTCGCCATGGACCGGTTTTCCCGGTAATCCGTATTTGCC (site CCCTTGCCTGG) | 0.011 |
| CCCTCGGCATGGACCGGTTTTCCCGGTAATCCGTATTTGCT (site CCCTCGGCTAG) | 0.0794 |
| CCCTGTTCATGGACCGGTTTTCCCGGTAATCCGTATTTGGG (site CCCTGTTCTCC) | 0.00741 |
| CCCTTCGCATGGACCGGTTTTCCCGGTAATCCGTATTTGGG (site CCCTTCACTCC) | 0.0167 |
| CCCTTCGCATGGACCGGTTTTCCCGGTAATCCGTATTTGGG (site CCCTTCCCTCC) | 0 |
| CCCTTCGCATGGACCGGTTTTCCCGGTAATCCGTATTTGGG (site CCCTTCGCTCC) | 0.0148 |
| CCCTTCGCATGGACCGGTTTTCCCGGTAATCCGTATTTGGG (site CCCTTCTCTCC) | 0.0112 |
| CCGAAAGCATGGACCGGTTTTCCCGGTAATCCGTATTTGAT (site CCAAAAGCTAT) | 0.501 |
| CCGAAAGCATGGACCGGTTTTCCCGGTAATCCGTATTTGAT (site CCCAAAGCTAT) | 0 |
| CCGAAAGCATGGACCGGTTTTCCCGGTAATCCGTATTTGAT (site CCGAAAGCTAT) | 0.975 |
| CCGAAAGCATGGACCGGTTTTCCCGGTAATCCGTATTTGAT (site CCTAAAGCTAT) | 0.0026 |

| Sequence | recombinant UMI read abundance (log10) |
| --- | --- |
| CCGAAGACATGGACCGGTTTTCCCGGTAATCCGTATTTGGC (site CCGAAGACTGC) | 0 |
| CCGAATCCATGGACCGGTTTTCCCGGTAATCCGTATTTGTA (site CCGAATCCTTA) | 0 |
| CCGAATCCATGGACCGGTTTTCCCGGTAATCCGTATTTGTA (site CGGAATCCTAA) | 0.00532 |
| CCGAATGCATGGACCGGTTTTCCCGGTAATCCGTATTTGAT (site CCGAATGCTAT) | 0.919 |
| CCGAATTCATGGACCGGTTTTCCCGGTAATCCGTATTTGTT (site CCGAATTCTAA) | 0 |
| CCGAATTCATGGACCGGTTTTCCCGGTAATCCGTATTTGTT (site CGGAATCCTAA) | 0.00782 |
| CCGAGCGCATGGACCGGTTTTCCCGGTAATCCGTATTTGAA (site CCGAGCGCTTT) | 0.998 |
| CCGAGCTCATGGACCGGTTTTCCCGGTAATCCGTATTTGTA (site CCGAGCTCTTA) | 0.496 |
| CCGAGGCCATGGACCGGTTTTCCCGGTAATCCGTATTTGGC (site CCGAGGCCTGC) | 0 |
| CCGATAGCATGGACCGGTTTTCCCGGTAATCCGTATTTGTG (site CCGATAGCTCA) | 0.0444 |
| CCGATAGCATGGACCGGTTTTCCCGGTAATCCGTATTTGTG (site CCGCTAGCTCA) | 0.0063 |
| CCGATAGCATGGACCGGTTTTCCCGGTAATCCGTATTTGTG (site CCGGTAGCTCA) | 0.00966 |
| CCGATAGCATGGACCGGTTTTCCCGGTAATCCGTATTTGTG (site CCGTTAGCTCA) | 0.0148 |
| CCGATATCATGGACCGGTTTTCCCGGTAATCCGTATTTGGC (site CCGATATCTGC) | 0.68 |
| CCGATCTCATGGACCGGTTTTCCCGGTAATCCGTATTTGAG (site CCGATCTCTCT) | 0.00289 |
| CCGCACACATGGACCGGTTTTCCCGGTAATCCGTATTTGGT (site CCGCACACTAC) | 0.509 |
| CCGCACACATGGACCGGTTTTCCCGGTAATCCGTATTTGTA (site CCACACACTTA) | 0.587 |
| CCGCACACATGGACCGGTTTTCCCGGTAATCCGTATTTGTA (site CCCCACACTTA) | 0.0105 |
| CCGCACACATGGACCGGTTTTCCCGGTAATCCGTATTTGTA (site CCGCACACTTA) | 0.895 |
| CCGCACACATGGACCGGTTTTCCCGGTAATCCGTATTTGTA (site CCTCACACTTA) | 0.00457 |
| CCGCATGCATGGACCGGTTTTCCCGGTAATCCGTATTTGCT (site CCGCATGCTAG) | 0.291 |
| CCGCATTCATGGACCGGTTTTCCCGGTAATCCGTATTTGCG (site CCGCATTCTCG) | 0.57 |
| CCGCCAGCATGGACCGGTTTTCCCGGTAATCCGTATTTGGG (site CCGCCAGCTCC) | 0 |
| CCGCCTCCATGGACCGGTTTTCCCGGTAATCCGTATTTGGC (site CCGCCTCCTGC) | 0 |
| CCGCGCACATGGACCGGTTTTCCCGGTAATCCGTATTTGTA (site CCGCGCACTTA) | 0.0144 |

— the supplement of paper PMC11208160
